pIC50: −log10 of the molar value. Like-named read-outs stand apart in the source and are kept apart here.
Tests used:
Experiment in all cases: Cell viability assay (MTS), targeted protein toxin mediated cell killing
Type in all cases: cell-based, human
SK-BR-3 cells (HER2^++) = tested on: SK-BR-3 cells (HER2^++)
Method: (§1) After treatment the cells were incubated for 72 hr at 37° C. before the cell viability was determined by a MTS-assay, performed according to the manufacturer's instruction (CellTiter 96® AQueous One Solution Cell Proliferation Assay, Promega). Briefly, the MTS solution was diluted 20× in DMEM without phenol red (PAN-Biotech GmbH) supplemented with 10% FBS. The cells were washed once with 200 μL/PBS well, after which 100 μL diluted MTS solution was added/well. The plate was incubated for approximately 20-30 minutes at 37° C. Subsequently, the OD at 492 nm was measured on a Thermo Scientific Multiskan FC plate reader (Thermo Scientific). For quantification the background signal of ‘medium only’ wells was subtracted from all other wells, before the cell viability percentage of treated/untreated cells was calculated, by dividing the background corrected signal of treated wells over the background corrected signal of the untreated wells (×100).

[1] = tested on: MDA-MB-468 cells (HER2^−); conditions: FIG. 9B
Method: as §1

A2058 cells (EGFR^−) = conditions: FIG. 8B
Method: as §1

A431 cells (EGFR^++) = tested on: A431 cells (EGFR^++)
Method: as §1

[2] = SO1861 titrated on 10 pM CD71mab-saporin
[3] = SO1861 titrated on 10 pM Pertuzumab-saporin
[4] = SO1861 titrated on 10 pM cetuximab-saporin
[5] = SO1861 titrated on 10 pM matuzumab-dianthin
[6] = SO1861 titrated on 50 pM Pertuzumab-saporin
[7] = SO1861 titrated on 50 pM trastuzumab-saporin
[8] = substance alone, equivalent concentrations, FIG. 2A

Molecule: CC(=O)O[C@H]1[C@H](O[C@@H]2OC[C@@H](O)[C@H](O)[C@H]2O)[C@@H](O)[C@H](O[C@@H]2[C@H](O)[C@@H](O[C@@H]3O[C@@H](C)[C@H](O[C@@H]4OC[C@@H](O)[C@H](O[C@@H]5O[C@H](CO)[C@@H](O)[C@H](O)[C@H]5O)[C@H]4O)[C@@H](O)[C@H]3O)[C@H](OC(=O)[C@]34CCC(C)(C)C[C@H]3C3=CC[C@@H]5[C@@]6(C)CC[C@H](O[C@@H]7O[C@H](C(=O)O)[C@@H](O)[C@H](O[C@@H]8OC[C@@H](O)[C@H](O)[C@H]8O)[C@H]7O[C@@H]7O[C@H](CO)[C@H](O)[C@H](O)[C@H]7O)[C@@](C)(C=O)[C@@H]6CC[C@@]5(C)[C@]3(C)C[C@H]4O)O[C@@H]2C)O[C@@H]1C [SO1861]
- pIC50 (SK-BR-3 cells (HER2^++); SO1861 titrated on 10 pM CD71-saporin, FIG. 9A, read-out: SO1861 IC50 cell killing): 6.70
- pIC50 (SK-BR-3 cells (HER2^++); SO1861 titrated on 10 pM Pertuzumab-saporin, FIG. 9A, read-out: SO1861 IC50 cell killing): 6.70
- pIC50 (SK-BR-3 cells (HER2^++); SO1861 titrated on 10 pM cetuximab-saporin, FIG. 9A, read-out: SO1861 IC50 cell killing): 6.70
- pIC50 (SK-BR-3 cells (HER2^++); SO1861 titrated on 10 pM matuzumab-dianthin, FIG. 9A, read-out: SO1861 IC50 cell killing): 6.70
- pIC50 (SK-BR-3 cells (HER2^++); SO1861 titrated on 50 pM Pertuzumab-saporin, FIG. 9A, read-out: SO1861 IC50 cell killing): 6.70
- pIC50 (SK-BR-3 cells (HER2^++); SO1861 titrated on 50 pM trastuzumab-saporin, FIG. 9A, read-out: SO1861 IC50 cell killing): 6.70
- pIC50 [1, 2]: 6.70
- pIC50 [1, 3]: < 6.00
- pIC50 [1, 4]: 6.70
- pIC50 [1, 5]: 6.70
- pIC50 [1, 6]: < 6.00
- pIC50 [1, 7]: < 6.00
- pIC50 (A2058 cells (EGFR^−); [2]): 6.70
- pIC50 (A2058 cells (EGFR^−); [3]): 6.70
- cell killing activity (A2058 cells (EGFR^−); [4]): not active
- cell killing activity (A2058 cells (EGFR^−); [5]): not active
- pIC50 (A2058 cells (EGFR^−); [6]): 6.70
- pIC50 (A2058 cells (EGFR^−); [7]): 6.70
- pIC50 (A431 cells (EGFR^++); SO1861 titrated on 10 pM CD71-saporin, FIG. 8A, read-out: SO1861 IC50 cell killing): 6.70
- pIC50 (A431 cells (EGFR^++); SO1861 titrated on 10 pM cetuximab-saporin, FIG. 8A, read-out: SO1861 IC50 cell killing): 6.70
- pIC50 (A431 cells (EGFR^++); SO1861 titrated on 10 pM matuzumab-dianthin, FIG. 8A, read-out: SO1861 IC50 cell killing): 6.70
- pIC50 (A431 cells (EGFR^++); SO1861 titrated on 10 pM pertuzumab-saporin, FIG. 8A, read-out: SO1861 IC50 cell killing): 6.52
- pIC50 (A431 cells (EGFR^++); SO1861 titrated on 50 pM pertuzumab-saporin, FIG. 8A, read-out: SO1861 IC50 cell killing): 6.70
- pIC50 (A431 cells (EGFR^++); SO1861 titrated on 50 pM trastuzumab, FIG. 8A, read-out: SO1861 IC50 cell killing): 6.60

Molecule: matuzumab-SO1861: SO1861-EMCH conjugated via cysteine residues (Cys) to matuzumab, with a DAR 3,3
- pIC50 (A431 cells (EGFR^++); substance titrated on fixed 10 pM EGFdianthin, FIG. 6A, read-out: IC50 cell killing): 8.70
- pIC50 (A431 cells (EGFR^++); substance titrated on fixed 10 pM cetuximab-saporin, FIG. 6A, read-out: IC50 cell killing): 8.70

Molecule: pertuzumab-(Cys-L-SO1861)^4: SO1861-EMCH conjugated via cysteine residues (Cys) to pertuzumab, with a DAR 4
- cell killing activity (SK-BR-3 cells (HER2^++); [8]): could not induce any cell killing activity
- pIC50 (SK-BR-3 cells (HER2^++); substance titrated on fixed 50 pM trastuzumab-saporin, FIG. 2A, read-out: IC50 cell killing): 9.30
- cell killing activity at higher concentrations (SK-BR-3 cells (HER2^++); titrated on fixed 50 pM pertuzumab-dianthin, higher concentrations): cell killing activity was reduced

Molecule: pertuzumab: monoclonal antibody binding human HER2
- cell killing activity (SK-BR-3 cells (HER2^++); equivalent concentrations + 50 pM trastuzumab-saporin, FIG. 2A): could not induce any cell killing activity
- cell killing activity (SK-BR-3 cells (HER2^++); [8]): could not induce any cell killing activity

From patent publication US20230248845A1, “COMBINATION OF AN ANTIBODY-DRUG CONJUGATE AND AN ANTIBODY-SAPONIN CONJUGATE” (SAPREME TECHNOLOGIES B.V., priority 2020, published 2023)
